Results as given in patent US9095524B2, “Customized compositions and uses thereof” (Bond University Ltd., priority 2011, dated 2015).

Test system: HMSCs
Test: Calcium deposition (osteogenic differentiation) with purmorphamine
Format: cell-based, human
Details: 2 μM purmorphamine added directly into differentiation media, hMSCs on polystyrene culture plate (PS)

Question: For `c1ccc2c(Oc3nc(Nc4ccc(N5CCOCC5)cc4)c4ncn(C5CCCCC5)c4n3)cccc2c1` [purmorphamine], which calcium deposition is on record?
Answer: significant increase in calcium deposition
